# Results: PMC5603865, “Synthesis, In-Vitro Activity and Metabolic Properties of Quinocetone and Structurally Similar Compounds” (Iranian Journal of Pharmaceutical Research : IJPR, 2017)
# Read-outs that look alike come from different tables or passages of the source.
# Legend:
# [1] = tested on: Clostridium perfringen CVCC52,8604; test: In-vitro antibacterial activity, MIC by broth dilution (anaerobic chamber); type: cell-based; settings: 24 h; for MIC: Clostridium
# Experimental: (§1) All test compounds were dissolved in dimethyl sulfoxide (DMSO, Sigma, USA) and then diluted in Dulbecco’s modified Eagle’s medium (DMEM, Gibco, USA) at desired concentrations for cell proliferation analyses or diluted in nutrient broth medium for antimicrobial susceptibility testing respectively. The final concentration of DMSO in the DMEM culture medium was under 0.1% (v:v).
# (§2) The preliminary antibacterial activities were obtained for selected compounds against various bacteria, namely: Staphyloccocus aureus ATCC25923 (Gram-positive bacteria), Clostridium perfringen CVCC52,8604 (anaerobes bacteria), Salmonella pullorum (Gram-negative bacteria), Escherichia coli ATCC25922 (Gram negative bacteria) and Aeromonas hydrophila (Gram-negative bacteria) were used in the study. Each strain was cultured in appropriate broth medium. Clostridium perfringen was incubated in an anaerobic chamber. The minimum inhibitory concentration (MIC) for each test compound was estimated using the broth dilution method. The MIC’s was determined for each strain/compound pairs that presented antimicrobial activity. The method was modified from Mohapatra›s methods ([14], [15]). Cell suspensions were prepared in 2 mL of liquid medium with concentrations of various tests of compounds in 15 mL culture tubes by inoculation with 100 μL of 10^6 cfu/mL from each stock. The cultures were incubated at 28 °C or 37 °C for 24 h. Tubes showing no visible turbidity represented the MIC, and subsequently, were inoculated on the right side of the 9cm sterile nutrient agar plates without various test compounds and incubated for 24 h (Clostridium perfringen was incubated in an anaerobic chamber.). The least concentration, at which no growth was observed, represented the minimum bactericidal concentration (MBC) ([16]).
# [2] = tested on: normal human Chang liver cells; test: In-vitro cytotoxicity, MTT cell proliferation assay; type: cell-based; settings: 24 h incubation, concentration reducing viable cells by 50%
# Experimental: as §1
# (§3) HepG2 and normal human Chang liver cells were obtained from the Institute of Biochemistry and Cell Biology, Shanghai Institutes for Biological Sciences, Chinese Academy of Sciences (Shanghai, China). HepG2 and normal human Chang liver cells were cultured at 37˚Cwith 5% CO2 in DMEM supplemented with 2% L-glutamine, 10% fetal bovine serum (Gibco, USA), 100 U/mL penicillin and 100 […] (Gibco, USA).
# (§4) The methodology for evaluating the cytotoxicity inhibitory activity of various test compounds towards cell proliferation has been described previously ([11], [17]). Cell proliferation inhibitory analyses were carried out using the 3-(4,5-dimethylthiazole-2-yl)-2,5-diphenyl tetrazolium bromide (MTT, Sigma, USA) assay. Briefly, cancers HepG2 and normal human Chang liver cells were harvested and resuspended in fresh growth medium. A 100 μL cell suspension (5 × 10^4 cells/mL) was aliquoted into each well of a 96-well culture plate. After 12 h incubation, the medium was replaced with fresh medium containing various concentrations of test compounds. The cells were then incubated for another 24 h. At the end of exposure, 10 μL of MTT solution (5 mg/mL) was added, and the cells were incubated for 4 h at 37 °C. The cells were treated with 100 μL DMSO, and absorbance was recorded at 570 nm using a microplate ELISA reader (ELX800, Bio-Tek, USA). All experiments were performed at least thrice, and data were presented as the mean of sixplicate wells ± standard deviation (SD). Cell inhibition was calculated as follows:
# (§5) (OD of control group − OD of experimental group) / (OD of control group − OD of blank group) ×100%. The IC50 value for a compound was calculated using SPSS.
# Salmonella pullorum = test: In-vitro antibacterial activity, MIC by broth dilution; type: cell-based; settings: 24 h; for MIC: Salmonella enterica, PULLORUM
# Experimental: as §1, §2
# [3] = tested on: Escherichia coli ATCC25922; test: as above; type: cell-based; settings: for MIC: Escherichia coli, read-out: MIC values Escherichia coli ATCC25922
# Experimental: as §1, §2
# Aeromonas hydrophila = test: as above; type: cell-based; settings: broth dilution, 24 h; for MIC: Aeromonas hydrophila, read-out: MIC values Aeromonas hydrophila
# Experimental: as §1, §2
# [4] = tested on: Staphyloccocus aureus ATCC25923; test: as above; type: cell-based; settings: 24 h; for MIC: read-out: MIC values Staphyloccocus aureus ATCC25923
# Experimental: as §1, §2
# HepG2 cells = test: In-vitro cytotoxicity, MTT cell proliferation assay; type: cell-based, human; settings: 24 h incubation, concentration reducing viable cells by 50%
# Experimental: as §1, §3, §4, §5
# [5] = tested on: Gram-positive and Gram-negative bacteria; test: Antibacterial activity class based on the MIC results; type: cell-based
# Experimental: as §2
# In this study, activity of quinoxaline-1, 4-dioxides and their deoxygenations was tested against selected Gram-negative bacteria (Escherichia coli, Salmonella pullorum and Aeromonas hydrophila), Gram-positive bacteria (Staphyloccocus aureus and Clostridium perfringen). The in-vitro antibacterial activity was based on the MIC results: Strong antibacterial activity, if MIC is less than 50 μg/mL; Moderate, if MIC is in between 50 and 250 μg/mL; No activity, if MIC is more than 500 μg/mL.
# [6] = Homo sapiens, Chang liver, 24 h
# [7] = ATCC25922, broth dilution, 24 h
Compound,MIC [1],"IC50 [2, 6]",MIC (Salmonella pullorum),"MIC [3, 7]",MIC (Aeromonas hydrophila),MIC ([4]; broth dilution),"IC50 (HepG2 cells; Homo sapiens, HepG2, 24 h)",antibacterial activity against Gram-positive and Gram-negative bacteria [5],"MIC ([3]; ATCC25922, 24 h)",MIC [4],MIC values Clostridium perfringen [1],IC50 [2],MIC values Salmonella pullorum (Salmonella pullorum),"MIC values Escherichia coli ATCC25922 ([3]; broth dilution, 24 h)",MIC values Aeromonas hydrophila (Aeromonas hydrophila),MIC values Staphyloccocus aureus ATCC25923 ([4]; broth dilution),IC50 (HepG2 cells)
COc1ccc(/C=C/C(=O)c2nc3ccccc3nc2C)cc1 [Compound 5f],> 500 µg/mL,531 ± 19.3 µM,> 500 µg/mL,> 500 µg/mL,> 500 µg/mL,> 500 µg/mL,653 ± 32 µM,,,,,,,,,,
Cc1c(C(=O)/C=C/c2ccc(N(C)C)cc2)[n+]([O-])c2ccccc2[n+]1[O-] [Compound 3h],447 µg/mL,509 ± 14.8 µM,> 500 µg/mL,,223 µg/mL,,395 ± 14.6 µM,little or no activity,447 µg/mL,447 µg/mL,,,,,,,
2-(3-phenyl-2-propenyl) -3-methylquinoxaline [Compound 5a],,,,,,,,,,,>500 µg/mL,532 ± 7.66 µM,>500 µg/mL,>500 µg/mL,>500 µg/mL,>500 µg/mL,451 ± 11.1 µM
Cc1nc2ccccc2nc1C(=O)/C=C/c1ccc([N+](=O)[O-])cc1 [Compound 5e],> 500 µg/mL,590.1 ± 2.22 µM,> 500 µg/mL,> 500 µg/mL,> 500 µg/mL,> 500 µg/mL,606 ± 34.6 µM,,,,,,,,,,
"CC(=O)c1c(C)[n+]([O-])c2ccccc2[n+]1[O-] [Compound 2, 2-acetyl-3-methylquinoxaline-1,4-dioxide]",8.72 µg/mL,263 ± 3.11 µM,17.4 µg/mL,4.36 µg/mL,17.4 µg/mL,17.4 µg/mL,288 ± 9.74 µM,strong or moderate activity,,,,,,,,,
"Cc1nc2ccccc2nc1C(=O)O [Compound 10, 3-methyl-quinoxaline-2-carboxylic acid]",> 500 µg/mL,2120 ± 90.1 µM,> 500 µg/mL,> 500 µg/mL,481 µg/mL,> 500 µg/mL,2490 ± 133 µM,,,,,,,,,,
Cc1c(C(=O)/C=C/c2ccc(Cl)cc2)[n+]([O-])c2ccccc2[n+]1[O-] [Compound 3g],435 µg/mL,114 ± 4.59 µM,> 500 µg/mL,> 500 µg/mL,> 500 µg/mL,27.2 µg/mL,102 µM,little or no activity,,,,,,,,,103 ± 4.08 µM
Cc1nc2ccccc2nc1C(=O)/C=C/c1ccc(N(C)C)cc1 [Compound 5h],> 500 µg/mL,567 ± 26.7 µM,> 500 µg/mL,> 500 µg/mL,> 500 µg/mL,> 500 µg/mL,626 ± 25.4 µM,,,,,,,,,,
Cc1nc2ccccc2nc1C(=O)/C=C/c1ccccc1O [Compound 5c],> 500 µg/mL,361 ± 10.2 µM,> 500 µg/mL,> 500 µg/mL,371 µg/mL,> 500 µg/mL,274 ± 11.6 µM,,,,,,,,,,
"Cc1nc2ccccc2nc1C(=O)/C=C/c1ccco1 [Compound 7, 3-methyl-2-(3-fura-2-propenoyl)-quinoxaline]",> 500 µg/mL,469 ± 5.26 µM,> 500 µg/mL,> 500 µg/mL,338 µg/mL,> 500 µg/mL,441 ± 12.3 µM,,,,,,,,,,
